Laboratory results taken from patent publication US12162867B2, “Inhibitors of RNA helicase DHX9 and uses thereof” (ACCENT THERAPEUTICS, INC., priority 2022, dated 2024).
Read-outs that look alike come from different tables or passages of the source.

What was measured:
[1] = test system: circBRIP1 in HCT116 cells; test: DHX9 circBRIP1 cellular target engagement SYBR Green assay (qPCR); assay type: cell-based; settings: Homo sapiens, HCT-116, circBRIP1, HCT116 cells; SyBr assay (marked ^+); read-out: DHX9 Cellular Target Engagement EC50
[2] = molecular target: T1, Human recombinant DHX9 protein (Homo sapiens, UniProt Q08211); test: DHX9 ATPase assay (ADP-Glo); assay type: biochemical; settings: for IC50: inflection point of dose-response curve, read-out: DHX9 Biochemical Inflection Point
T1 construct: purchased Viva
T1 sequence (Q08211 whole entry): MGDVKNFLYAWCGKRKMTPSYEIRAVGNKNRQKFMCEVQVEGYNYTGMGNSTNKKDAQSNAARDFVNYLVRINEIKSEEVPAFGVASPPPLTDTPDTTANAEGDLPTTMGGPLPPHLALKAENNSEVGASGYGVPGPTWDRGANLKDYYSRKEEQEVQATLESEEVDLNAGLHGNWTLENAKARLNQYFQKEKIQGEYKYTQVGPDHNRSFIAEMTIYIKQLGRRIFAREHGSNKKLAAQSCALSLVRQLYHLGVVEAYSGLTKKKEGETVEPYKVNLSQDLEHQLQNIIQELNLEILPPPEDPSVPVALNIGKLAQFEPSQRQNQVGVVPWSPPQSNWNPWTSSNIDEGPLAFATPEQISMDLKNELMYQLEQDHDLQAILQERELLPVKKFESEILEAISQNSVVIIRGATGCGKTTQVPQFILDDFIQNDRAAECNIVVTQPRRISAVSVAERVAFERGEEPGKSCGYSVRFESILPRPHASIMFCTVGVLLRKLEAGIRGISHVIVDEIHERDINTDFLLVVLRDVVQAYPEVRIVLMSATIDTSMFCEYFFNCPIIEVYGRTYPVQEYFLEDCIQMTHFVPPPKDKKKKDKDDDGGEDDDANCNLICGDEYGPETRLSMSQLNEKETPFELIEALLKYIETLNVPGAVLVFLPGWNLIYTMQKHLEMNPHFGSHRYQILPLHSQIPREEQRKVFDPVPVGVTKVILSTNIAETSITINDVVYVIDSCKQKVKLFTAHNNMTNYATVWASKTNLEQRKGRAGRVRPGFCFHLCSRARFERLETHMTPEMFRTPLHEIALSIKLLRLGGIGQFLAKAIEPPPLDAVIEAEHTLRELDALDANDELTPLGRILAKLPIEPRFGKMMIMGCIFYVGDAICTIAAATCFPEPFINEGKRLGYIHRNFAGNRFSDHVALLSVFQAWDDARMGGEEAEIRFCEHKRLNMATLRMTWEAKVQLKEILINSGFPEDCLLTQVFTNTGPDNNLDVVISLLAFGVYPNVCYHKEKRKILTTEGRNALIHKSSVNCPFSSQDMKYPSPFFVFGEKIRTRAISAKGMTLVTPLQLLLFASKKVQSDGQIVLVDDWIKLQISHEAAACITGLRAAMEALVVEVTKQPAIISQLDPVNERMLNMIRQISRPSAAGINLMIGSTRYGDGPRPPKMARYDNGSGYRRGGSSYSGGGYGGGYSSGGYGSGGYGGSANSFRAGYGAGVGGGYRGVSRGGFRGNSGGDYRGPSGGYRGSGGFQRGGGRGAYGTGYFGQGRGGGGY

NCI-H747 cells = test: DHX9 cellular proliferation assay (CellTiter-Glo), NCI-H747 (CRC-MSS); assay type: cell-based; settings: Homo sapiens, performed at Pharmaron, read-out: H747 (CRC-MSS) Antiproliferative IC50
LS411N cells = test: DHX9 cellular proliferation assay (CellTiter-Glo), LS411N (CRC-MSI); assay type: cell-based; settings: Homo sapiens, LS-411N, LS411N, performed at Pharmaron, read-out: LS411N (CRC-MSI-H) Antiproliferative IC50
[3] = test system: circBRIP1 in HCT116 cells; test: DHX9 circBRIP1 cellular target engagement TaqMan Multiplex assay (qPCR); assay type: cell-based; settings: read-out: DHX9 Cellular Target Engagement EC50
[4] = Homo sapiens, HCT-116, circBRIP1, HCT116 cells, * Taqman assay was used
[5] = Homo sapiens, HCT-116, 72 h, circBRIP1, HCT116 cells, 72 hours, Taqman assay (marked *)

| Structure (SMILES) | EC50 [3, 4] | IC50 (NCI-H747 cells; NCI-H747, NCI-H747) | IC50 (LS411N cells) | further results |
| --- | --- | --- | --- | --- |
| CS(=O)(=O)Nc1cc(Cl)cc(NC(=O)c2cnn([C@H]3CCC[C@H]3Oc3ccccc3)c2)c1 (single isomer, unassigned) [Example 259] |  |  |  | EC50 [1]: > 10000 nM; IC50 [2]: 1940 nM |
| CC(C)(C)OC(=O)NC1CC2(C1)CC(n1cc(C(=O)Nc3cc(Cl)cc(NS(C)(=O)=O)c3)cn1)C2 (stereo not shown) [Example 318] |  |  |  | EC50 [1]: 4900 nM; IC50 [2]: 207 nM |
| CS(=O)(=O)Nc1cc(Cl)cc(NC(=O)c2cnn([C@H]3CCC[C@H]3c3ccccc3)c2)c1 (single isomer, unassigned) [Example 260] |  |  |  | EC50 [1]: > 10000 nM; IC50 [2]: 715 nM |
| Cc1sc(C(=O)Nc2cc(Cl)cc(NS(C)(=O)=O)c2)cc1-c1ncccc1-c1cncc(F)c1 [Example 229] |  |  |  | EC50 [1]: 78.1 nM; DHX9 Biochemical Max Inhibition [2]: 72.5%; IC50 [2]: 9.6 nM; IC50 (NCI-H747 cells; NCI-H747, NCI-H747, CRC-MSS): > 10000 nM; IC50 (LS411N cells; CRC-MSI-H): 51 nM |
| Cn1cc(C(=O)Nc2cc(Cl)cc(NS(C)(=O)=O)c2)cc1-c1ccc(C2CCOCC2)cn1 [Example 704] | 25.4 nM | 7140 nM | 56.9 nM |  |
| Cc1sc(C(=O)Nc2cc(Cl)cc(NS(C)(=O)=O)c2)cc1-c1ncc(N2CC3(C2)CC(F)(F)C3)cc1F [Example 511] | 37.2 nM | 7410 nM | 149 nM |  |
| Cn1cc(C(=O)Nc2cc(Cl)cc(NS(C)(=O)=O)c2)cc1-c1ncc(N2CC(F)(F)C2)cn1 [Example 597] | 64.8 nM | > 10000 nM | 164 nM |  |
| CCS(=O)(=O)Nc1cc(Cl)cc(NC(=O)c2cc(-c3ncc(F)cc3OCc3nccs3)c(C)s2)c1 [Example 622] | 55.9 nM | > 10000 nM | 48.9 nM |  |
| CS(=O)(=O)Nc1cc(Cl)cc(NC(=O)c2cc(-c3ncc(C(F)(F)F)cn3)cs2)c1 [Example 369] |  |  |  | EC50 [3, 5]: 86.8 nM; IC50 (NCI-H747 cells; NCI-H747, NCI-H747, CRC-MSS): > 10000 nM; IC50 (LS411N cells; CRC-MSI-H): 227 nM |
| CCS(=O)(=O)Nc1cc(Cl)cc(NC(=O)c2cc(-c3ccc(F)cn3)n(C)c2)c1 [Example 579] | 103 nM | > 10000 nM | 329 nM |  |
| Cc1sc(C(=O)Nc2cc(Cl)cc(NS(C)(=O)=O)c2)cc1-c1ncc(F)cc1F [Example 349] |  |  |  | EC50 [3, 5]: 58.2 nM; IC50 (NCI-H747 cells; NCI-H747, NCI-H747, CRC-MSS): > 10000 nM; IC50 (LS411N cells; CRC-MSI-H): 154 nM |
| CN1C(=O)N(c2ccc(-c3cc(C(=O)Nc4cc(Cl)cc(NS(C)(=O)=O)c4)cn3C)nc2)C(=O)C1(C)C [Example 603] | 45.8 nM | 8370 nM | 1090 nM |  |
| Cn1cc(C(=O)Nc2cc(Cl)cc(NS(C)(=O)=O)c2)cc1-c1ccc(N2CCC(F)(F)C2)cn1 [Example 527] | 109 nM | 5580 nM | 65.4 nM |  |
| Cc1sc(C(=O)Nc2cc(Cl)cc(NS(C)(=O)=O)c2)cc1-c1ncc(N2CC(F)(F)C2)cc1OC(C)C [Example 534] | 87.6 nM | > 10000 nM | 55.4 nM |  |
| Cn1cc(C(=O)Nc2cc(Cl)cc(NS(C)(=O)=O)c2)cc1-c1ncc(F)cc1CCc1cncc(F)c1 [Example 728] |  |  |  | DHX9 Biochemical Max Inhibition (%) [2]: 62.5%; EC50 ([3]; circBRIP1, HCT116 cells, * Taqman assay was used): 1350 nM |
| Cn1cc(C(=O)Nc2cc(Cl)cc(NS(C)(=O)=O)c2)cc1-c1ncc(N2CC(C(F)(F)F)C2)cc1F [Example 524, N-(3-chloro-5-methanesulfonamidophenyl)-5-{3-fluoro-5-[3-(trifluoromethyl)azetidin-1-yl]pyridin-2-yl}-1-methyl-1H-pyrrole-3-carboxamide] | 76.6 nM | 6290 nM | 138 nM |  |
| COc1cnc(-c2cc(C(=O)Nc3cc(Cl)cc(NS(C)(=O)=O)c3)sc2C)c(F)c1 [Example 358] |  |  |  | EC50 [3, 5]: 53.3 nM; IC50 (NCI-H747 cells; NCI-H747, NCI-H747, CRC-MSS): 6870 nM; IC50 (LS411N cells; CRC-MSI-H): 129 nM |
| CS(=O)(=O)Nc1cc(Cl)cc(NC(=O)c2cc(-c3ncc(N4CC(F)(F)C4)cn3)cs2)c1 [Example 486] | 31.1 nM | 1990 nM | 112 nM |  |
| Cc1sc(C(=O)Nc2cc(Cl)cc(NS(C)(=O)=O)c2)cc1-c1ncc(OC2CCC2)cn1 [Example 452] | 65.3 nM | > 10000 nM | 223 nM |  |
| CCS(=O)(=O)Nc1cc(Cl)cc(NC(=O)c2cc(-c3ncc(C)cc3F)n(C)c2)c1 [Example 548] | 80.4 nM | 6460 nM | 226 nM |  |
| COc1cnc(-c2cc(C(=O)Nc3cc(Cl)cc(NS(C)(=O)=O)c3)sc2C)c(C)c1 [Example 361] |  |  |  | EC50 [3, 5]: 43.2 nM; IC50 (NCI-H747 cells; NCI-H747, NCI-H747, CRC-MSS): 6250 nM; IC50 (LS411N cells; CRC-MSI-H): 361 nM |
